Measured values taken from patent US20250051344A1, “BIFUNCTIONAL SELECTIVE DEGRADERS OF SMARCA2 AND THERAPEUTIC USES THEREOF” (Nurix Therapeutics, Inc., priority 2023, published 2025).

Experiments:
SMARCA4 = target: T1, SMARCA4 (Homo sapiens, UniProt P51532); assay: Cellular degradation assay, SMARCA4 (Table 1); assay type: cell-based
T1 construct: endogenous in cells

SMARCA2 = target: T2, SMARCA2 (Homo sapiens, UniProt P51531); assay: SMARCA2 Cellular Degradation Assay (Western blot analysis on Jess platform); assay type: cell-based; details: for Dmax / DC50: cellular degradation; for Fold Selectivity SMARCA4/2: ratio DC50 SMARCA4 / DC50 SMARCA2
T2 construct: endogenous in cells
T2 sequence (P51531 whole entry, species assumed): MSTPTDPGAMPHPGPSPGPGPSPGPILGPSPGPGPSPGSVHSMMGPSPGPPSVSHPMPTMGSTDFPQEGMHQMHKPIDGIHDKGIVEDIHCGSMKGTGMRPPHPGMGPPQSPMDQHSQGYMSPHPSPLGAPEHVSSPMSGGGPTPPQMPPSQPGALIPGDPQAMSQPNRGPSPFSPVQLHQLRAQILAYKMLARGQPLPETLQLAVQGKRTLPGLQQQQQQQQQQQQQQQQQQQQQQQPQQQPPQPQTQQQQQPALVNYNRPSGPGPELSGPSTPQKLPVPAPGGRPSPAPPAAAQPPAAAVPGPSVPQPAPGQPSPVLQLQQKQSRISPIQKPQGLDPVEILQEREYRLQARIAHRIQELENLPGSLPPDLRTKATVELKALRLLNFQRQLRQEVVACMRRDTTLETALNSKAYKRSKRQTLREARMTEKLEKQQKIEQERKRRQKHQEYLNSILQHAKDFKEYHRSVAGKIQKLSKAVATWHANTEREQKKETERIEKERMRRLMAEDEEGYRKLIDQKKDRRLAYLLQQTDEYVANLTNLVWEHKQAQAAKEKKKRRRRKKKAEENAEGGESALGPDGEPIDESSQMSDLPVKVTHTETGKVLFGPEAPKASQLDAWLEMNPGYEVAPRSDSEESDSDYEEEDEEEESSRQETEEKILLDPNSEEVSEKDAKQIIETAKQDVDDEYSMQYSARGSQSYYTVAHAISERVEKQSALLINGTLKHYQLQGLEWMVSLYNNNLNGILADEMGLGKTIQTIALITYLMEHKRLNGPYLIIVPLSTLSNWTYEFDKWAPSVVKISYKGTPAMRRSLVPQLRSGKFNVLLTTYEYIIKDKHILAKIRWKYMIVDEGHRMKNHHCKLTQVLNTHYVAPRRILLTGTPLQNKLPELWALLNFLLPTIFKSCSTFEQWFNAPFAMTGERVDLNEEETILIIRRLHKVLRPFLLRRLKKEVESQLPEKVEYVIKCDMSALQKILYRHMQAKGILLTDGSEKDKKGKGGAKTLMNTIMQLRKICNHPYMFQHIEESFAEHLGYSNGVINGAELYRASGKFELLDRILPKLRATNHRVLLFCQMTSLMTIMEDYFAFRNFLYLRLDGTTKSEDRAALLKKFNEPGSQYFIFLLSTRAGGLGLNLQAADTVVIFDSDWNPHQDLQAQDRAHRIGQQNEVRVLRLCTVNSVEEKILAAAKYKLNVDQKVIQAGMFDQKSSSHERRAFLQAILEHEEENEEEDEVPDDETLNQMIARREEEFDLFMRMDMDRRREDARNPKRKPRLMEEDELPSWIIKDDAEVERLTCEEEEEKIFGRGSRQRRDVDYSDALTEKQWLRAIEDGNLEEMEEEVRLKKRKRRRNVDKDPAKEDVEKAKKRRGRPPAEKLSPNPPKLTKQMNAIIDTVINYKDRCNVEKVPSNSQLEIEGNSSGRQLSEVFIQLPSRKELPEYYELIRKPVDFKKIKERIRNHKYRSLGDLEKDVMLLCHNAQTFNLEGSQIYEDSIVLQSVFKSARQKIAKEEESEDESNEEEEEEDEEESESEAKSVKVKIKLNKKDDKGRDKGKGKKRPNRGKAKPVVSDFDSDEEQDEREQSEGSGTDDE
Experimental: SMARCA2 Cellular Degradation Assay
Western Blot Analysis for SMARCA2 Degradation
Frozen cell pellets were thawed on ice and resuspended in RIPA lysis buffer (Millipore, Cat. No. 20-188) supplemented with 0.2% SDS (Fisher Scientific, Cat. No. 24730020), 200 mM β-glycerophosphate (Alfa Aesar, Cat. No. J62121), 500 mM NaF (Rigaku, Cat. No. 1008046), protease inhibitor (1 tablet per 10 mL, Sigma, Cat. No. 11836170001), 250 U/μL benzonase (Millipore, Cat. No. 71206), 200 mM sodium orthovanadate (FivePhoton, Cat. No. ActVO-4), and 100 mM PMSF (Sigma, Cat. No. 10837091001). 50 μL lysis buffer was used to lyse each pellet containing 5×10E5-1×10E6 live cells extracted from tumors. Lysates were centrifuged for 10 mins at 20,817×g and lysate supernatants were saved for further analysis. Protein levels were determined by the BCA Assay performed according to manufacturer's protocol (EMD Millipore, Cat. No. 71285-3). Samples were evaluated by Western blot analysis on the Jess Platform (ProteinSimple). Lysates were diluted with complete lysis buffer (as described above) and 5 μg of total proteins were loaded onto each capillary. Samples were prepared using the ProteinSimple EZ Standard Pack 1 (Cat. No. PS-ST01EZ-8; containing tubes with powdered (5×) Fluorescent Master Mix, DTT, and biotinylated ladder) and run using the ProteinSimple 25-Capillary Cartridge kit (Cat. No. SM-W004; containing 25-capillary cartridge Wash reagent, and 10× Sample Buffer reagent), the ProteinSimple Anti-Rabbit HRP Detection Module for Jess (Cat. No. DM-001; containing Antibody Diluent, anti-rabbit secondary antibody, Luminol-S, Peroxide, and Streptavidin-HRP), and the ProteinSimple Anti-Mouse NIR Detection Module for Jess (Cat. No. DM-009; containing Antibody Diluent, anti-mouse NIR secondary antibody, and Streptavidin-NIR) as the following describes. The DTT was reconstituted with 40 μL water to make a 400 mM solution, 20 μL of the DTT solution plus 20 μL of 10× Sample Buffer were added to reconstitute the 5× Fluorescent Master Mix, and 20 μL of H2O was used to reconstitute the biotinylated ladder. For each sample, lysate (4 μL) was combined with 5× Fluorescent Master Mix (1 μL) and heated at 95° C. for 5 minutes. Samples were cooled and stored on ice. Primary antibody solution was made using anti-SMARCA2 antibody (Abcam, Cat. No. 240648, 1:10) and anti-beta-Actin antibody (Cell Signaling Technology, Cat. No. 3700S, 1:25) in antibody diluent. The 25-capillary cartridges were prepared per standard ProteinSimple protocol with each sample in a column. For the biotinylated ladder in column 1, the following were added: 5 µL of ladder sample in Row A, 10 μL of antibody diluent in Rows B and C, 10 μL of Streptavidin-NIR in Row D, and 15 μL of a 50:50 Luminol-s/Peroxide solution in Row E. For each test sample (columns 2-25), the following were added per column: 5 μL of sample in Row A, 10 μL of antibody diluent in Row B, 10 μL of primary antibody solution in Row C, 10 μL of secondary antibody in Row D, and 15 μL of a 50:50 Luminol-S/Peroxide solution in Row E. 500 μL wash buffer was added to the wash buffer wells in the cartridge and cartridge was spun at 1000×g for 5 minutes prior to loading into the Jess. Samples were run using the Chemiluminescence and Fluorescence immunoassays in the ProteinSimple Compass for SimpleWestern program (version 5.0.0). After running, SMARCA2, actin, and background curves were identified in the Compass software; note that in the Compass software, the electropherograms are also visualized as bands for comparison with standard Western blot outputs. The electropherogram area reading for each sample curve was normalized to that of the corresponding actin curve per column following background (capillary background) subtraction using the following equation: […]
Following normalization, the percentage of SMARCA2 remaining per sample relative to the vehicle control was calculated as follows: […]

T1 sequence (P51532 whole entry, species assumed): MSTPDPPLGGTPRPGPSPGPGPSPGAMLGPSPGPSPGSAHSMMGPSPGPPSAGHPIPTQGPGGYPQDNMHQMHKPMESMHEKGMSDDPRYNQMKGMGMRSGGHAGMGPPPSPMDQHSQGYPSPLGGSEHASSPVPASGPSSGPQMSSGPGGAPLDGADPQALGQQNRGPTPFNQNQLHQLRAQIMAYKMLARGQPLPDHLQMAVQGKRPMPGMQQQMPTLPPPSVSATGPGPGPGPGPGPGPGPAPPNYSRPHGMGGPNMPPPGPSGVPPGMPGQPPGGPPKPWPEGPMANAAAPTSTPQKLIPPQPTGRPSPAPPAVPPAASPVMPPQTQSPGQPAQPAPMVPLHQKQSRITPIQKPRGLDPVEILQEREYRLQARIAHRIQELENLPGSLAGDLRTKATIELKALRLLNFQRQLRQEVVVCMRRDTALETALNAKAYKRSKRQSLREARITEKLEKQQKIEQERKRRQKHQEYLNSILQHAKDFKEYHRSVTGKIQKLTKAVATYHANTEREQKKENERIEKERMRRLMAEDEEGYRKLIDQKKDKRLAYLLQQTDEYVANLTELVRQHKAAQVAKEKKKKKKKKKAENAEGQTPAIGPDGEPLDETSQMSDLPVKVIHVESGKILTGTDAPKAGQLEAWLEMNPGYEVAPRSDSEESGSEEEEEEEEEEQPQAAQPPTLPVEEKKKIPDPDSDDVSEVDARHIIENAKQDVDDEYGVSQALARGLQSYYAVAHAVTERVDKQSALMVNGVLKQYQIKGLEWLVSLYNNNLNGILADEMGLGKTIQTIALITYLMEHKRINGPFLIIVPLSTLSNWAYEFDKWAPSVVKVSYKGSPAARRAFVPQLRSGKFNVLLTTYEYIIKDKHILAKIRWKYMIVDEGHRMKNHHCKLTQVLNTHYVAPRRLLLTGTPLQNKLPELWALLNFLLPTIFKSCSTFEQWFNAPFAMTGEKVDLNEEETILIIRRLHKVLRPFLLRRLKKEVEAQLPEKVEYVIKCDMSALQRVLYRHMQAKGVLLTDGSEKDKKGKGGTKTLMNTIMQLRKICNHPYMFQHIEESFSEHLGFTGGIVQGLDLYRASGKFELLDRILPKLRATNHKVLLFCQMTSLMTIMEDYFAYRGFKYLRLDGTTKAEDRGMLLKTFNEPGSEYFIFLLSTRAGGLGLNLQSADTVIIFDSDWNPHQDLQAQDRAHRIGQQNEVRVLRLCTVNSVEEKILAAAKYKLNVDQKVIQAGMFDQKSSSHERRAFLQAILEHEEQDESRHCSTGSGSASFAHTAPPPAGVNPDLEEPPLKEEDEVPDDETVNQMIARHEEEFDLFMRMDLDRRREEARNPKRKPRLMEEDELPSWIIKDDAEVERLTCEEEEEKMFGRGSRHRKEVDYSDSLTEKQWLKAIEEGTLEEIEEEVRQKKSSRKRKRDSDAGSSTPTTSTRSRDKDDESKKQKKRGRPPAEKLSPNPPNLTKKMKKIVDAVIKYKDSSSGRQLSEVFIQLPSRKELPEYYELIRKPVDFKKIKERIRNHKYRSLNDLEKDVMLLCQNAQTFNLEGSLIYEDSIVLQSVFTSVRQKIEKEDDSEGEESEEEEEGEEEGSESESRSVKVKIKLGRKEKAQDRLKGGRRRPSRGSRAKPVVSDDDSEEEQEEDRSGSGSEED

Q: What does the source list for `C[C@H](Oc1ccc(C2CCC(=O)NC2=O)cc1)C1CCN(C(=O)C2(c3ccccc3)CCN(c3cnnc(-c4ccccc4O)c3)CC2)CC1` (mixture of isomers) [Example 2, (3RS)-3-{4-[(1S)-1-(1-{1-[6-(2-hydroxyphenyl)pyridazin-4-yl]-4-phenylpiperidine-4-carbonyl}piperidin-4-yl)ethoxy]phenyl}piperidine-2,6-dione]?
A: Dmax (SMARCA4): 22.1%; Dmax (SMARCA2): 53.5%; Fold Selectivity SMARCA4/2 (SMARCA2): 1

Q: Which Dmax (SMARCA4) does the source give for `O=C1CCC(Nc2ccc(C3CCN(CCNC(=O)C4(c5ccccc5)CCN(c5cnnc(-c6ccccc6O)c5)CC4)CC3)cc2)C(=O)N1` (racemic) [Example 170, rac-N-{2-[4-(4-{[(3R)-2,6-dioxopiperidin-3-yl]amino}phenyl)piperidin-1-yl]ethyl}-1-[6-(2-hydroxyphenyl)pyridazin-4-yl]-4-phenylpiperidine-4-carboxamide] here?
A: 48.5%

Q: And the DC50 (SMARCA2)?
A: 38.3 nM

Q: What about the Dmax (SMARCA2) of the same compound?
A: 59.2%

Q: And the “Fold Selectivity SMARCA4/2” value (SMARCA2)?
A: 261

Q: Which Dmax (SMARCA4) does the source give for `O=C1CC[C@H](c2ccc(N3CCC(CN4CC(F)(F)C5(C4)CN(C(=O)C4(c6ccccc6)CCN(c6cnnc(-c7ccccc7O)c6)CC4)C5)CC3)cc2)C(=O)N1` [Example 52, (3R)-3-(4-{4-[(8,8-difluoro-2-{1-[6-(2-hydroxyphenyl)pyridazin-4-yl]-4-phenylpiperidine-4-carbonyl}-2,6-diazaspiro[3.4]octan-6-yl)methyl]piperidin-1-yl}phenyl)piperidine-2,6-dione] here?
A: 13.7%

Q: And the Dmax (SMARCA2)?
A: 44%

Q: And the “Fold Selectivity SMARCA4/2” value (SMARCA2)?
A: 1

Q: Which results are given for `CN(C(=O)C1(c2cc3ccccn3n2)CCN(c2cnnc(-c3ccccc3O)c2)CC1)C1CCN(CC2CCN(c3ccc(C4CCC(=O)NC4=O)cc3)CC2)CC1` (racemic) [Example 97, rac-N-{1-[(1-{4-[(3R)-2,6-dioxopiperidin-3-yl]phenyl}piperidin-4-yl)methyl]piperidin-4-yl}-1-[6-(2-hydroxyphenyl)pyridazin-4-yl]-N-methyl-4-{pyrazolo[1,5-a]pyridin-2-yl}piperidine-4-carboxamide]?
A: DC50 (SMARCA4): 20.7 nM; Dmax (SMARCA4): 65.8%; DC50 (SMARCA2): 3.14 nM; Dmax (SMARCA2): 86.6%; Fold Selectivity SMARCA4/2 (SMARCA2): 7

Q: Which Dmax (SMARCA4) does the source give for `CN(C(=O)C1(OC2CC2)CCN(c2cnnc(-c3ccccc3O)c2)CC1)C1CCN(CCC2CCN(c3ccc([C@H]4CCC(=O)NC4=O)c(F)c3)CC2)CC1` (racemic) [Example 70, rac-(r)-4-cyclopropoxy-n-(1-(2-(1-(4-(2,6-dioxopiperidin-3-yl)-3-fluorophenyl)piperidin-4-yl)ethyl)piperidin-4-yl)-1-(6-(2-hydroxyphenyl)pyridazin-4-yl)-n-methylpiperidine-4-carboxamide] here?
A: 35.1%

Q: What about the DC50 (SMARCA2) of the same compound?
A: 8.6 nM

Q: What about the Dmax (SMARCA2) of the same compound?
A: 81.4%

Q: And the “Fold Selectivity SMARCA4/2” value (SMARCA2)?
A: 1163

Q: With `O=C1CC[C@H](c2ccc(N3CCC(C(=O)N4CCC5(CC4)CN(CC4(c6ccccc6)CCN(c6cnnc(-c7ccccc7O)c6)CC4)C5)CC3)cc2)C(=O)N1` [Example 164, (3R)-3-(4-{4-[2-({1-[6-(2-hydroxyphenyl)pyridazin-4-yl]-4-phenylpiperidin-4-yl}methyl)-2,7-diazaspiro[3.5]nonane-7-carbonyl]piperidin-1-yl}phenyl)piperidine-2,6-dione] as the compound, how does the DC50 (SMARCA4) read?
A: 3.77 nM

Q: What about the Dmax (SMARCA4) of the same compound?
A: 86.6%

Q: And the DC50 (SMARCA2)?
A: 2.16 nM

Q: What about the Dmax (SMARCA2) of the same compound?
A: 85%

Q: What about the “Fold Selectivity SMARCA4/2” value (SMARCA2) of the same compound?
A: 2

Q: With `O=C1CC[C@H](c2ccc(N3CCC(CCN4CCC(S(=O)(=O)NCC5(c6ccccc6)CCN(c6cnnc(-c7ccccc7O)c6)CC5)CC4)CC3)cc2)C(=O)N1` (racemic) [Example 118, rac-1-(2-(1-(4-(2,6-dioxopiperidin-3-yl)phenyl)piperidin-4-yl)ethyl)-n-((1-(6-(2-hydroxyphenyl)pyridazin-4-yl)-4-phenylpiperidin-4-yl)methyl)piperidine-4-sulfonamide] as the compound, how does the DC50 (SMARCA4) read?
A: 35.5 nM

Q: What about the Dmax (SMARCA4) of the same compound?
A: 76.5%

Q: What about the DC50 (SMARCA2) of the same compound?
A: 8.85 nM

Q: And the Dmax (SMARCA2)?
A: 84%

Q: What about the “Fold Selectivity SMARCA4/2” value (SMARCA2) of the same compound?
A: 4
